Measured values from US20220143003A1, “COMPOSITIONS AND METHODS TO TREAT NON-ALCOHOLIC FATTY LIVER DISEASES (NAFLD)” (Coherus Biosciences, Inc., priority 2018, published 2022).

Tested on: DIO-NASH mice
Assay: Plasma urea at termination
Format: in vivo, male C57BL/6JRj mice
Details: termination; group mean; CHS-131 High dose (alone or combined)
Experimental: For plasma biochemistry, tail blood was drawn directly through the capillary of a Microvette/Vacuette of the right dimension and anticoagulant and mixed by inversion 5 times. Blood was placed at 4° C. until centrifugation at 3000×g for 10 minutes at 4° C. The plasma supernatants were transferred to new tubes and immediately frozen on dry ice and stored at −80° C. until analysis.
Mouse insulin was measured in single determinations using the MSD platform (Meso Scale Diagnostics).
Plasma urea at termination (mmol/L). Values expressed as mean of n=12-14+SEM.

Plasma urea at termination: 7.86 mmol/L
SMILES: CCCCCCCCCCCCCCCC(=O)N[C@@H](CCC(=O)NCCCC[C@H](NC(=O)[C@H](C)NC(=O)[C@H](C)NC(=O)[C@H](CCC(N)=O)NC(=O)CNC(=O)[C@H](CCC(=O)O)NC(=O)[C@H](CC(C)C)NC(=O)[C@H](Cc1ccc(O)cc1)NC(=O)[C@H](CO)NC(=O)[C@H](CO)NC(=O)[C@@H](NC(=O)[C@H](CC(=O)O)NC(=O)[C@H](CO)NC(=O)[C@@H](NC(=O)[C@H](Cc1ccccc1)NC(=O)[C@@H](NC(=O)CNC(=O)[C@H](CCC(=O)O)NC(=O)[C@H](C)NC(=O)[C@@H](N)Cc1cnc[nH]1)[C@@H](C)O)[C@@H](C)O)C(C)C)C(=O)N[C@@H](CCC(=O)O)C(=O)N[C@@H](Cc1ccccc1)C(=O)N[C@H](C(=O)N[C@@H](C)C(=O)N[C@@H](Cc1c[nH]c2ccccc12)C(=O)N[C@@H](CC(C)C)C(=O)N[C@H](C(=O)N[C@@H](CCCNC(=N)N)C(=O)NCC(=O)N[C@@H](CCCNC(=N)N)C(=O)NCC(=O)O)C(C)C)[C@@H](C)CC)C(=O)O [Liraglutide, reference compound]
